Results from patent publication US20090182019A1, “Histone deacetylase inhibitors” (The Johns Hopkins University, priority 2005, published 2009).
Where a name gives a salt, the structure may show the parent alone.

Columns and labels:
HDAC [1] = assay: Inhibition of isolated HDAC, commercial Fluor de Lys assay (HeLa cell nuclear extract); format: biochemical; conditions: 1 μM inhibitor; average of three determinations
Protocol: This is a facile and rapid 96-well plate-based assay that is suitable for use as a high throughput screen. The reaction mixture contains a HeLa cell nuclear extract and a commercial substrate containing acetylated lysine side chains. The substrate and extract are incubated in the presence of the appropriate concentration of the inhibitor. Deacetylation of the substrate followed by mixing with the provided developer generates a fluorophore. Comparison of inhibited vs. control relative fluorescence using a standard plate reader is employed to determine percent HDAC activity remaining. All determinations can be carried out in triplicate, and reported values can be the average of these determinations.
Compounds were evaluated for their ability to inhibit isolated HDAC at 1 μM in the Fluor de Lys™ assay system.

HDAC [2] = assay: as above; format: biochemical; set-up: dose or concentration left out as unconfirmed; conditions: TSA as positive control
[3] = system: ML-1 human myelocytic leukemia line; assay: Cell viability in ML-1 cells, MTT assay; format: cell-based; conditions: ML1, 3 days and 7 days of exposure, 0.1 to 100 μM, read-out: IC50, toxicity to ML-1 cells (MTT)
Description: The well characterized ML-1 human myelocytic leukemia cell line was used to obtain the results presented below in the Examples section. This line has a well characterized response to HDAC inhibitors and is amenable for use in rapid in vitro screening of compounds to evaluate growth inhibitory effects. In addition to the ML-1 cells, the well characterized HCT 116 human colon adenocarcinoma may be used. […]
The MTT (3-[4,5-dimethylthiazol-2-yl]2,5-diphenyl tetrazolium bromide) reduction assay for growth inhibition studies may also be employed. […] HCT 116 cells are seeded at a density of 5×10^4 cells/ml and ML-1 cells are seeded at 2×10^4/ml and are treated for a period of 96 hr prior to dye reduction and plate reading. […]
Compound 19 was evaluated in a series of cell viability studies in the ML-1 human myelocytic leukemia line. […] Compound 19, as well as the positive controls TSA and MS-275, were compared at concentrations between 0.1 and 100 μM, and cell viability was determined in the ML-1 cultured cell preparation at 3 days (FIG. 4) and 7 days (FIG. 5) using a standard MTT assay. […] In a separate set experiments, cell viability was determined under the same conditions by direct cell count. […]

[4] = system: ML-1 human myelocytic leukemia line; assay: Cell viability in ML-1 cells, direct cell count; format: cell-based; conditions: ML1, 3 and 7 days of exposure, read-out: IC50, toxicity to ML-1 cells (direct cell count)
Protocol: ML-1 cells were maintained in RPMI medium supplemented with 10% fetal calf serum, 0.1 mg/mL gentamicin, and 2 mM L-glutamine. 3×10^5 cells/ml were treated with 1 (Wako Pure Chemicals, Richmond, Va.), 2 (Mitsui Pharmaceuticals, Chiba, Japan) and the desired test compound for the concentration and time indicated in the figure legend.
Compound 19 was evaluated in a series of cell viability studies in the ML-1 human myelocytic leukemia line. The results of these studies are outlined in FIGS. 4-7. Compound 19, as well as the positive controls TSA and MS-275, were compared at concentrations between 0.1 and 100 μM, and cell viability was determined in the ML-1 cultured cell preparation at 3 days (FIG. 4) and 7 days (FIG. 5) using a standard MTT assay. […] In a separate set experiments, cell viability was determined under the same conditions by direct cell count. As before, TSA and MS-275 produced significant toxicity at both 3 and 7 days, again with IC50 values less than 10 μM.

O=C(CCCCCCCC(=O)NCCCNCCCCNCCC(c1ccccc1)c1ccccc1)NO [Compound 71]
Inhibition of HDAC at 1 μM (%) (HDAC [1]): 54%

CN(C)c1ccc(CCNCCCCNCCCNC(=O)CCCCCCC(=O)NO)cc1 [Compound 68]
Inhibition of HDAC at 1 μM (%) (HDAC [1]): 46%

CN(C)c1ccc(CNCCCCNC(=O)CCCCC(=O)NO)cc1 [Compound 16, 5-{4-[4-N,N-(Dimethyl)aminobenzyl]amino}butylcarbamoylpentanohydroxamic Acid]
Inhibition of HDAC at 1 μM (%) (HDAC [1]): 10.32%

CN(C)c1ccc(CNCCCCNC(=O)CCCCCCC(=O)NO)cc1 [Compound 12, 7-{4-[4-N,N-(Dimethylamino)benzyl]aminobutyl}-carbamoylheptanohydroxamic Acid]
Inhibition of HDAC at 1 μM (%) (HDAC [1]): 33.89%

O=C(CCCCCC(=O)NCCCNCCCCNCCC(c1ccccc1)c1ccccc1)NO [Compound 70]
Inhibition of HDAC at 1 μM (%) (HDAC [1]): 46%

Cc1ccc(CNCCCCNC(=O)CCCCCCC(=O)NO)cc1 [Compound 17, 7-{4-[4-(Methyl)benzyl]aminobutyl}carbamoylheptanohydroxamic Acid]
Inhibition of HDAC at 1 μM (%) (HDAC [1]): 53.2%

CC(C)(C)c1ccc(CNCCCCNCCCNC(=O)CCCCC(=O)NO)cc1 [Compound 11, 15-N-[(4-tert-Butyl)benzyl]amino-6-oxo-7,11-diazapentadecanohydroxamic Acid dihydrobromide]
Inhibition of HDAC at 1 μM (%) (HDAC [1]): 74.86%
Dose-response for inhibition of HDAC (relative potency) (HDAC [2]): essentially equipotent

O=C(CCCCC(=O)NCCCCNCc1ccccc1-c1ccccc1)NO [Compound 5, 5-{4-[2-(Phenyl)benzyl]aminobutyl}carbamoylpentanohydroxamic Acid]
Inhibition of HDAC at 1 μM (%) (HDAC [1]): 16.34%

O=C(CCCCC(=O)NCCCNCCCNCCCNCCCNCC1CCCCCC1)NO [Compound 9, 22-(N-[2-(Cycloheptyl)methyl]amino)-6-oxo-7,11,15,19-tetraazadocosanohydroxamic Acid]
Inhibition of HDAC at 1 μM (%) (HDAC [1]): 41.03%

CC(C)(C)c1ccc(CNCCCCNCCCNC(=O)CCCCCCC(=O)NO)cc1 [Compound 15, dihydrobromide]
Inhibition of HDAC at 1 μM (%) (HDAC [1]): 49.36%

O=C(CCCCC(=O)NCCCNCCCCNCCC(c1ccccc1)c1ccccc1)NO [Compound 20, 15-N-[4-(3,3-diphenyl)propyl]amino-6-oxo-7,11-diazapentadecanohydroxamic Acid dihydrobromide]
Inhibition of HDAC at 1 μM (%) (HDAC [1]): 19.75%

CN(C)c1ccc(CN(CCCCN)C(=O)CCCCCCC(=O)NO)cc1 [Compound 18, 7-{[4-(Amino)butyl]-N-[4-(dimethylaminobenzyl)-carbamoyl]}heptanohydroxamic Acid]
Inhibition of HDAC at 1 μM (%) (HDAC [1]): 15.6%

CC(C)(C)c1ccc(CNCCCCNCCCNC(=O)CCCCC(=O)O)cc1 [Compound 13]
Inhibition of HDAC at 1 μM (%) (HDAC [1]): 1.48%

O=C(CCCCC(=O)NCCCCN(Cc1ccccc1-c1ccccc1)Cc1ccccc1-c1ccccc1)NO [Compound 10]
Inhibition of HDAC at 1 μM (%) (HDAC [1]): 3.74%

Nc1ccccc1NC(=O)c1ccc(CNC(=O)OCc2cccnc2)cc1 [Compound 2, MS-275]
IC50 [3]: < 10 µM
Inhibition of HDAC at 1 μM (%) (HDAC [1]): 100%
IC50 [4]: < 10 µM

CN(C)c1ccc(CN(CCCNCCCCN)C(=O)CCCCCCC(=O)NO)cc1 [Compound 72]
Inhibition of HDAC at 1 μM (%) (HDAC [1]): 58%

Cc1ccc(CNCCCCNC(=O)CCCCC(=O)NO)cc1 [Compound 7, 5-{4-[4-(Methyl)benzyl]aminobutyl}carbamoylpentanohydroxamic Acid]
Inhibition of HDAC at 1 μM (%) (HDAC [1]): 44.17%

CC(/C=C/C(=O)NO)=C\[C@@H](C)C(=O)c1ccc(N(C)C)cc1 [Compound 1, trichostatin]
IC50 [3]: < 10 µM
Inhibition of HDAC at 1 μM (%) (HDAC [1]): 100%
IC50 [4]: < 10 µM

O=C(CCCCCCC(=O)NCCCNCCCNCCCNCCC(c1ccccc1)c1ccccc1)NO [Compound 67]
Inhibition of HDAC at 1 μM (%) (HDAC [1]): 55%

O=C(CCCCCCCCC(=O)NCCCNCCCCNCCC(c1ccccc1)c1ccccc1)NO [Compound 69]
Inhibition of HDAC at 1 μM (%) (HDAC [1]): 73%

CN(C)c1ccc(CN(CCCNCCCCN)C(=O)CCCCC(=O)NO)cc1 [Compound 14]
Inhibition of HDAC at 1 μM (%) (HDAC [1]): 59.99%
Dose-response for inhibition of HDAC (relative potency) (HDAC [2]): essentially equipotent
